Experimental data published in patent US6897244B2, “Dihydronootkatone and tetrahydronootkatone as repellents to arthropods” (Board of Supervisors of Louisiana State University and …, priority 2002, dated 2005).

Test system: Formosan subterranean termites
Assay: Petri dish treated/untreated sand bioassay for repelling activity against termites
Format: in vivo, Coptotermes formosanus
Parameters: key to percent of termites on untreated sand vs expected value of 50% (Chi-Square, p≦0.05): “−” indicates the test was not significantly different from the expected value; “+” indicates the test was significantly different from the expected value
Protocol: A carton nest (colony A) of Formosan subterranean termites was collected in Algiers, Louisiana in November 1997, and held in 250-liter cans. The cans were filled with pine as a food source, and kept at a temperature range of 24-26° C. Moistened corrugated cardboard rolls were used to retrieve termites from the cans. Once the termites migrated to the cardboard rolls, they were gently knocked from the cardboard rolls into clean rectangular plastic trays (40 cm×50 cm). Retrieved termites were isolated from debris by allowing them to cling to sheets of moistened paper towels. The average weight of each termite was 1.21 mg.
To test for effectiveness of nootkatone, 1,10-dihydronootkatone and tetrahydronootkatone in repelling termites, a bioassay was conducted using Petri dishes (5 cm diameter and 1 cm height). To ensure adequate moisture for the termites, 1 ml of a hot agar solution (1.5% in H2O) was spread on the bottom of the Petri dish. After the agar cooled, sand that was treated as described below was spread on the bottom of the Petri dish. For the treated sand, purified 1,10-dihydronootkatone or tetrahydronootkatone were dissolved in 2 ml ethanol, and then diluted to achieve final concentrations of 1, 2, 5, 12.5, 25, 50, and 100 μg/g sand. The solution was mixed with 1 g sand that had been autoclaved and cooled. The control sand was autoclaved sand with only 200 μl ethanol added. One half of the surfaces in the Petri dishes were covered with 1 g treated sand, and the other half with 1 g untreated sand.
The prepared Petri dishes were then used to evaluate the repelling activity against Formosan subterranean termites. Ten worker termites were added to each Petri dish, and the dishes were covered to eliminate light. Five replicate dishes were tested for each concentration and for the control. Termite position was recorded every 15 min during the first hour of testing by counting the number of termites observed on untreated sand. After the first hour, termite position was recorded each hour for 3 hr.
Differences between the percent of termites on untreated sand and an expected value were statistically analyzed by a Chi-Square analysis, using an expected value of 50% and a significance level of p≦0.05.

C=C(C)C1CCC2CC(=O)CC(C)C2(C)C1 (centres unmarked) [Dihydronootkatone, 1,4,4a,5,6,7,8,10-octahydro-6-isopropenyl-4,4a-dimethyl-2(1H)-naphthalenone]
percent of termites on untreated sand vs expected value of 50% (Chi-Square, p≦0.05) (2 μg/dish, 0.25 hour): −
percent of termites on untreated sand vs expected value of 50% (Chi-Square, p≦0.05) (2 μg/dish, 0.5 hour): −
percent of termites on untreated sand vs expected value of 50% (Chi-Square, p≦0.05) (2 μg/dish, 0.75 hour): −
percent of termites on untreated sand vs expected value of 50% (Chi-Square, p≦0.05) (2 μg/dish, 1 hour): −
percent of termites on untreated sand vs expected value of 50% (Chi-Square, p≦0.05) (2 μg/dish, 2 hour): −
percent of termites on untreated sand vs expected value of 50% (Chi-Square, p≦0.05) (2 μg/dish, 3 hour): −
percent of termites on untreated sand vs expected value of 50% (Chi-Square, p≦0.05) (5 μg/dish, 0.25 hour): −
percent of termites on untreated sand vs expected value of 50% (Chi-Square, p≦0.05) (5 μg/dish, 0.5 hour): −
percent of termites on untreated sand vs expected value of 50% (Chi-Square, p≦0.05) (5 μg/dish, 0.75 hour): −
percent of termites on untreated sand vs expected value of 50% (Chi-Square, p≦0.05) (5 μg/dish, 1 hour): −
percent of termites on untreated sand vs expected value of 50% (Chi-Square, p≦0.05) (5 μg/dish, 2 hour): −
percent of termites on untreated sand vs expected value of 50% (Chi-Square, p≦0.05) (5 μg/dish, 3 hour): −
percent of termites on untreated sand vs expected value of 50% (Chi-Square, p≦0.05) (12.5 μg/dish, 0.25 hour): +
percent of termites on untreated sand vs expected value of 50% (Chi-Square, p≦0.05) (12.5 μg/dish, 0.5 hour): +
percent of termites on untreated sand vs expected value of 50% (Chi-Square, p≦0.05) (12.5 μg/dish, 0.75 hour): +
percent of termites on untreated sand vs expected value of 50% (Chi-Square, p≦0.05) (12.5 μg/dish, 1 hour): +
percent of termites on untreated sand vs expected value of 50% (Chi-Square, p≦0.05) (12.5 μg/dish, 2 hour): +
percent of termites on untreated sand vs expected value of 50% (Chi-Square, p≦0.05) (12.5 μg/dish, 3 hour): +
percent of termites on untreated sand vs expected value of 50% (Chi-Square, p≦0.05) (25 μg/dish, 0.25 hour): −
percent of termites on untreated sand vs expected value of 50% (Chi-Square, p≦0.05) (25 μg/dish, 0.5 hour): +
percent of termites on untreated sand vs expected value of 50% (Chi-Square, p≦0.05) (25 μg/dish, 0.75 hour): +
percent of termites on untreated sand vs expected value of 50% (Chi-Square, p≦0.05) (25 μg/dish, 1 hour): +
percent of termites on untreated sand vs expected value of 50% (Chi-Square, p≦0.05) (25 μg/dish, 2 hour): +
percent of termites on untreated sand vs expected value of 50% (Chi-Square, p≦0.05) (25 μg/dish, 3 hour): +
percent of termites on untreated sand vs expected value of 50% (Chi-Square, p≦0.05) (50 μg/dish, 0.25 hour): +
percent of termites on untreated sand vs expected value of 50% (Chi-Square, p≦0.05) (50 μg/dish, 0.5 hour): +
percent of termites on untreated sand vs expected value of 50% (Chi-Square, p≦0.05) (50 μg/dish, 0.75 hour): +
percent of termites on untreated sand vs expected value of 50% (Chi-Square, p≦0.05) (50 μg/dish, 1 hour): +
percent of termites on untreated sand vs expected value of 50% (Chi-Square, p≦0.05) (50 μg/dish, 2 hour): +
percent of termites on untreated sand vs expected value of 50% (Chi-Square, p≦0.05) (50 μg/dish, 3 hour): +
percent of termites on untreated sand vs expected value of 50% (Chi-Square, p≦0.05) (100 μg/dish, 0.25 hour): +
percent of termites on untreated sand vs expected value of 50% (Chi-Square, p≦0.05) (100 μg/dish, 0.5 hour): +
percent of termites on untreated sand vs expected value of 50% (Chi-Square, p≦0.05) (100 μg/dish, 0.75 hour): +
percent of termites on untreated sand vs expected value of 50% (Chi-Square, p≦0.05) (100 μg/dish, 1 hour): +
percent of termites on untreated sand vs expected value of 50% (Chi-Square, p≦0.05) (100 μg/dish, 2 hour): +
percent of termites on untreated sand vs expected value of 50% (Chi-Square, p≦0.05) (100 μg/dish, 3 hour): +
factor by which the effective termite-repellent concentration is lower than that of nootkatone (relative to nootkatone): 8
concentration effective as termite repellent (time periods up to 3 hr): 12.5 µg
